In the experiment the target is CB1 (rCB1) (Rattus norvegicus, UniProt P20272). The experiment can be described thus: Single-point radioligand displacement screen. It counts as binding. The settings on record: 10 µM, 1 µM or 300 nM by cell colour (not visible).
Sequence of CB1 (rCB1) (P20272 whole entry): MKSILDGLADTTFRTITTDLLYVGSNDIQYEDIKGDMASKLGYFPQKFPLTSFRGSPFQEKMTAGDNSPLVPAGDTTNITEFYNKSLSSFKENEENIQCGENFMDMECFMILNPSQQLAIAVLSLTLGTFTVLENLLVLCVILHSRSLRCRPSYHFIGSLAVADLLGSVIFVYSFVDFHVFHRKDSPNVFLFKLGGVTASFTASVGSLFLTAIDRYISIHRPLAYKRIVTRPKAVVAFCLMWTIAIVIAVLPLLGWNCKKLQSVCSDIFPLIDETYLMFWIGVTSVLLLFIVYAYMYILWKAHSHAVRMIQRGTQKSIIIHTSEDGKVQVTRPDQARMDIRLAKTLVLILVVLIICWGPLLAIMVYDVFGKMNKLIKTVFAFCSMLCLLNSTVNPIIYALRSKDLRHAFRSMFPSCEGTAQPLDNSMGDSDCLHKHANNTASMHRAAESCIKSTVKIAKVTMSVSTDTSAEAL

With `N#CCCn1ncc(C(=O)OCC2CSc3ccccc3O2)c1-c1ccccc1` (centres unmarked) [compound 0372], the “% 1H-CP-55,940 displacement (mean) from single point screen” value amounted to 41.18%. For the molecule `Cc1nc(CC2CC2)oc1-c1nc(Cc2cc(Br)c3c(c2)OCO3)no1` [compound 53217], the “% 1H-CP-55,940 displacement (mean) from single point screen” value worked out at 14.33%.
